Data reported in US20040157268A1, “Conformational assays to detect binding to membrane spanning, signal-transducing proteins” (priority 2001, published 2004).
Values belong to the molecule of their own block, whether it stands above or below them.

How the values were obtained:
[1] = target: T1, FM-β2AR (Homo sapiens, UniProt P07550); assay: Fluorescence intensity of FM-β2AR (fluorescein maleimide at Cys265), time course; conditions: ligand added to FM-β2AR, in words
[2] = target: T1, FM-β2AR; assay: Fluorescence lifetime analysis of FM-β2AR (frequency domain); type: biochemical; set-up: made in house
Excerpt: Fluorescence lifetime analysis of fluorescein labeled β2AR. […] The instrument covered a wide frequency range (4-5000 MHz), which allowed detection of lifetimes ranging from several nanoseconds to a few picoseconds. Samples were placed in a 10-mm path-length cuvette. The excitation was provided by the frequency-doubled output of a cavity-dumped pyridine-2 dye laser tuned at 370 nm synchronously pumped by a mode-locked argon ion laser. Sample emission was filtered through Corning 3-72 and 4-96 filters.
The governing equations for the time-resolved intensity decay data were assumed to be a sum of discrete exponentials as in I(t)=IoΣiαie^t/τ^i, where I(t) is the intensity decay, αi is the amplitude (pre-exponential factor) and τi is the fluorescence lifetime of the i-th discrete component; or a sum of Gaussian distribution functions as in the equation I(t)=IoΣiαiτe^t/τ and [formula]
In the frequency domain, the measured quantities at each frequency ω, are the phase shift (Øω) and demodulation factor (mω) of the emitted light versus the reference light.
Fractional intensity, amplitude, and lifetime parameters were recovered by a non-linear least squares procedure using the software developed at the Center for Fluorescence Spectroscopy. The measured data were compared with calculated values (Øcω,mcω) and the goodness of fit was characterized by [formula]
where ν is the number of degrees of freedom and δØ and δm are the uncertainties in the measured phase and modulation values, respectively. The sum extends over all frequencies (ω).

[3] = target: T1, FM-β2AR; assay: Quenching of FM-β2AR fluorescence (KI, oxyl-NHS, nitroxide fatty acids), Stern-Volmer; type: biochemical; set-up: made in house; conditions: for quenching constant Ksv (nitroxide fatty acids): total lipid constant with stearic acid, n=3
[4] = system: FM-β2AR; assay: as above; type: biochemical, human; conditions: ISO-induced change in fluorescence with quencher vs without; 250 mM KI vs 250 mM KCl; Oxyl-NHS bound to K224 in TM5; ALP reversal as measure; n=3
[5] = Gaussian lifetime distribution, long component
[6] = Gaussian lifetime distribution, short component
[7] = fit to discrete exponential functions

T1 sequence (P07550 whole entry, the tested form may be a part): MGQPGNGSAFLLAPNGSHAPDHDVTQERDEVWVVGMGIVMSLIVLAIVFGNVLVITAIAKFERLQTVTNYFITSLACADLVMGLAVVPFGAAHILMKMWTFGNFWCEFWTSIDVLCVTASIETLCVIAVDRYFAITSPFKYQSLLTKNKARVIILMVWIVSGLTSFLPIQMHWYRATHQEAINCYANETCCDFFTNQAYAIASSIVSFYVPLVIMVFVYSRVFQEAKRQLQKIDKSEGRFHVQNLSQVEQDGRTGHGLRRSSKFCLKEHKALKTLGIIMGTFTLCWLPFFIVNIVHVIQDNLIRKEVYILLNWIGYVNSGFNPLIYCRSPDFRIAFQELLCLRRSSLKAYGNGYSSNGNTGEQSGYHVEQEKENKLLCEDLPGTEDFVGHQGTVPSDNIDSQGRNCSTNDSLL

Compound: CNC[C@H](O)c1ccc(O)c(O)c1 [epinephrine]
change in FM-β2AR fluorescence [1]: progressively smaller changes

Compound: [I-].[K+] [KI, potassium iodide]
% of control ISO response [4]: 55.4±8.3%

Second part, the molecule after the results:

FWHMLONG [2, 5]: 0.4±0.4
τLONG [2, 5]: 4.38±0.01 nsec
FWHMSHORT [2, 6]: 0.9±0.6
τSHORT [2, 6]: 1.78±0.01 nsec
τ1 (nsec) [2, 7]: 4.36 ± 0.01 nsec
τ2 (nsec) [2, 7]: 1.68 ± 0.3 nsec
α2 ([2]; fit to discrete exponential functions, fractional contribution of τ2): 0.07 ± 0.01
change in FM-β2AR fluorescence [1]: progressively smaller changes
Compound: CC(CCc1ccc(O)cc1)NCCc1ccc(O)c(O)c1 (stereo not shown) [DOB, dobutamine]

effect on magnitude of the agonist-induced change in fluorescence ([3]; 100 μM 5-DOX): no significant effect
quenching of baseline fluorescence ([3]; 100 μM 5-DOX): 12%
quenching constant Ksv (nitroxide fatty acids) [3]: 1.4 ± 0.2 mM⁻¹
Compound: CCCCCCCCCCCCCC1(CCCC(=O)O)OCC(C)(C)N1[O] (stereo not shown) [5-DOX, 5-doxyl stearate]

effect on magnitude of the agonist-induced fluorescence change ([3]; 50 μM CAT-16): more than two fold
quenching of baseline fluorescence ([3]; 50 μM CAT-16): ~12%
quenching constant Ksv (nitroxide fatty acids) [3]: 2.4 ± 0.1 mM⁻¹
Compound: CCCCCCCCCCCCCCCC[N+](C)(C)C1CC(C)(C)N([O])C(C)(C)C1.[I-] [CAT-16]
